In patent publication US20190375708A1 (VenatoRx Pharmaceuticals, Inc., priority 2018, published 2019):

Assays:
[1] = In vitro cytotoxicity assay (MTT cell viability) in HepG2 cells; format: cell-based, human; details: human
Procedure, shortened: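 Parental HepG2 cells in EMEM + 10% FBS were exposed to compounds (8 half-log dilutions, 30 μM to 1.0 nM) for 7 days at 37 °C, 5% CO2. MTT was then added for 3-4 h, formazan dissolved in DMSO and absorbance read at 492 nm; CC50 came from 4-parameter fits against vehicle controls.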

[2] = tested on: HBV replication in HepAD38 cells; assay: Anti-HBV replication assay in HepAD38 cells (QPCR of extracellular HBV DNA); format: cell-based, HBV (genotype D, serotype ayw); details: Hepatitis B virus, 168 h, 7 days incubation, extracellular HBV DNA by QPCR, read-out: Anti-HBV EC50
Procedure, shortened: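 HepAD38 cells (HepG2 carrying tet-repressible HBV genotype D genome) induced by tetracycline withdrawal, treated 7 days at 37 °C with compound ([…], 1-log10 dilutions). Extracellular HBV DNA quantified by QPCR against a standard curve, normalised to DMSO; EC50 from 4-parameter fit.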

**Q.** For Cc1cc(NC(=O)c2c(C)c(C(=O)C(=O)Nc3ccc(N4CCOCC4)nc3)n(C)c2C)ccc1F [Example 266, N-(4-fluoro-3-methylphenyl)-1,2,4-trimethyl-5-(2-((6-morpholinopyridin-3-yl)amino)-2-oxoacetyl)-1H-pyrrol-3-carboxamide], which CC50 at 7 days [1] is on record?
**A.** > 30 µM

**Q.** And the EC50 [2]?
**A.** 0.05 to 0.499 µM

**Q.** Which CC50 at 7 days [1] does the source give for Cc1noc([C@H](C)NC(=O)C(=O)c2c(Cl)c(C(=O)Nc3ccc(F)c(F)c3)c3n2CCCC3)n1 [Example 516, (S)-2-chloro-N-(3,4-difluorophenyl)-3-(2-((1-(3-methyl-1,2,4-oxadiazol-5-yl)ethyl)amino)-2-oxoacetyl)-5,6,7,8-tetrahydroindolizine--1 carboxamide] here?
**A.** > 30 µM

**Q.** What about the EC50 [2] of the same compound?
**A.** 0.05 to 0.499 µM

**Q.** Which results are given for Cc1cc(NC(=O)c2c(C)c(C(=O)C(=O)NCCN)n(C)c2C)ccc1F [Example 257, 5-(2-((2-aminoethyl)amino)-2-oxoacetyl)-N-(4-fluoro-3-methylphenyl)-1,2,4-trimethyl-1H-pyrrole-3-carboxamide]?
**A.** CC50 at 7 days [1]: 5 to 30 µM; EC50 [2]: 0.05 to 0.499 µM

**Q.** With O=C(NC1(CO)CC(F)(F)C1)C(=O)c1c(Cl)c(C(=O)Nc2ccc(F)c(F)c2)c2n1CCCC2 [Example 520, 2-chloro-3-(2-((3,3-difluoro-1-(hydroxymethyl)cyclobutyl)amino)-2-oxoacetyl)-N-(3,4-difluorophenyl)-5,6,7,8-tetrahydroindolizine-1-carboxamide] as the compound, how does the CC50 at 7 days [1] read?
**A.** > 30 µM

**Q.** What about the EC50 [2] of the same compound?
**A.** < 0.05 µM

**Q.** With Cc1c(C(=O)Nc2ccc(F)c(F)c2)c2n(c1C(=O)C(=O)NCCN)CCCC2 [Example 741, 3-(2-((2-aminoethyl)amino)-2-oxoacetyl)-N-(3,4-difluorophenyl)-2-methyl-5,6,7,8-tetrahydroindolizine-1-carboxamide] as the compound, how does the CC50 at 7 days [1] read?
**A.** > 30 µM

**Q.** And the EC50 [2]?
**A.** 0.05 to 0.499 µM

**Q.** Which results are given for Cc1cc(NC(=O)c2c(C)c(C(=O)C(=O)NC3(CO)CC(F)(F)C3)n(C)c2C)ccc1F [Example 126, 5-(2-((3,3-difluoro-1-(hydroxymethyl)cyclobutyl)amino)-2-oxoacetyl)-N-(4-fluoro-3-methylpheenyl)-1,2,4-trimethyl-1H-pyrrole-3-carboxamide]?
**A.** CC50 at 7 days [1]: > 30 µM; EC50 [2]: < 0.05 µM

**Q.** For Cc1cc(NC(=O)c2c(C)c(C(=O)C(=O)NC(C)(C)C(=O)OC(C)(C)C)n(C)c2C)ccc1F [Example 22, tert-butyl 2-(2-(4-((4-fluoro-3-methylphenyl)carbamoyl)-1,3,5-trimethyl-1H-pyrrol-2-yl)-2-oxoacetamido)-2-methylpropanoate], which CC50 at 7 days [1] is on record?
**A.** > 30 µM

**Q.** And the EC50 [2]?
**A.** < 0.05 µM

**Q.** Which results are given for Cc1c(C(=O)Nc2cc(F)c(F)c(F)c2)c(C)n(C)c1C(=O)C(=O)Nc1ccccn1 [Example 318, 1,2,4-trimethyl-5-(2-oxo-2-(pyridin-2-ylamino)acetyl)-N-(3,4,5-trifluorophenyl)-1H-pyrrole-3-carboxamide]?
**A.** CC50 at 7 days [1]: > 30 µM; EC50 [2]: 0.05 to 0.499 µM

**Q.** Which CC50 at 7 days [1] does the source give for COc1cc(NC(=O)C(=O)c2c(C)c(C(=O)Nc3ccc(F)c(C)c3)c(C)n2C)ccc1B(O)O [Example 248, (4-(2-(4-((4-fluoro-3-methylphenyl)carbamoyl)-1,3,5-trimethyl-1H-pyrrol-2-yl)-2-oxoacetamido)-2-methoxyphenyl)boronic acid] here?
**A.** 5 to 30 µM

**Q.** And the EC50 [2]?
**A.** 0.05 to 0.499 µM

**Q.** What does the source list for Cc1cc(NC(=O)c2c(C)c(C(=O)C(=O)NC(C)(C)C(=O)O)n(C)c2C)ccc1F [Example 29, 2-(2-(4-((4-fluoro-3-methylphenyl)carbamoyl)-1,3,5-trimethyl-1H-pyrrol-2-yl)-2-oxoacetamido)-2-methylpropanoic acid]?
**A.** CC50 at 7 days [1]: > 30 µM; EC50 [2]: 0.5 to 1 µM

**Q.** For Cc1cc(NC(=O)c2c(C)c(C(=O)C(=O)NC3(C(F)(F)F)CC(O)C3)n(C)c2C)ccc1F (stereo not shown) [Example 288, N-(4-fluoro-3-methylphenyl)-5-(2-((3-hydroxy-1-(trifluoromethyl)cyclobutyl)amino)-2-oxoacetyl)-1,2,4-trimethyl-1H-pyrrole-3-carboxamide], which CC50 at 7 days [1] is on record?
**A.** > 30 µM

**Q.** And the EC50 [2]?
**A.** < 0.05 µM

**Q.** What does the source list for Cc1cc(NC(=O)c2c(C)c(C(=O)C(=O)NC3CCN(c4ncccn4)CC3)n(C)c2C)ccc1F [Example 658]?
**A.** CC50 at 7 days [1]: 5 to 30 µM; EC50 [2]: < 0.05 µM

**Q.** Which results are given for Cc1cc(NC(=O)c2cc(C(=O)C(=O)N3CCc4nc(N)sc4C3)n3c2CCCC3)ccc1F [Example 421, 3-(2-(2-amino-6,7-dihydrothiazolo[5,4-c]pyridin-5(4H)-yl)-2-oxoacetyl)-N-(4-fluoro-3-methylphenyl)-5,6,7,8-tetrahydroindolizine-1-carboxamide]?
**A.** CC50 at 7 days [1]: > 30 µM; EC50 [2]: > 1 µM

**Q.** For Cc1cc(NC(=O)c2c(Cl)c(C(=O)C(=O)NC(C)(C)CO)n3c2CCC3)ccc1F [Example 540, 6-chloro-N-(4-fluoro-3-methylphenyl)-5-(2-((1-hydroxy-2-methylpropan-2-yl)amino)-2-oxoacetyl)-2,3-dihydro-1H-pyrrolizine-7-carboxamide], which CC50 at 7 days [1] is on record?
**A.** > 30 µM

**Q.** What about the EC50 [2] of the same compound?
**A.** < 0.05 µM

**Q.** Which results are given for Cc1cc(NC(=O)c2c(C)c(C(=O)C(=O)N[C@H]3C4CC5CC3C[C@](O)(C5)C4)n(CCF)c2C)ccc1F [Example 118, N-(4-fluoro-3-methylphenyl)-1-(2-fluoroethyl)-5-(2-(((1R,2s,3S,5s,7s)-5-hydroxyadamantan-2-yl)amino)-2-oxoacetyl)-2,4-dimethyl-1H-pyrrole-3-carboxamide]?
**A.** CC50 at 7 days [1]: > 30 µM; EC50 [2]: < 0.05 µM

**Q.** With Cc1cc(NC(=O)c2c(C)c(C(=O)C(=O)N[C@@H]3CCOC[C@H]3O)n(C)c2C)cnc1F [Example 164, N-(6-fluoro-5-methylpyridin-3-yl)-5-(2-(((3S,4R)-3-hydroxytetrahydro-2H-pyran-4-yl)amino)-2-oxoacetyl)-1,2,4-trimethyl-1H-pyrrole-3-carboxamide] as the compound, how does the CC50 at 7 days [1] read?
**A.** > 30 µM

**Q.** And the EC50 [2]?
**A.** 0.5 to 1 µM

**Q.** Which CC50 at 7 days [1] does the source give for COc1c(C(=O)Nc2ccc(F)c(F)c2)c(C)n(C)c1C(=O)C(=O)NC(C)(C)C [Example 380] here?
**A.** > 30 µM

**Q.** And the EC50 [2]?
**A.** < 0.05 µM

**Q.** Which results are given for Cc1cc(NC(=O)c2c(C)c(C(=O)C(=O)N[C@H]3CC[C@H](N)CC3)n(C)c2C)ccc1F [Example 232, 5-(2-(((1r,4r)-4-aminocyclohexyl)amino)-2-oxoacetyl)-N-(4-fluoro-3-methylphenyl)-1,2,4-trimethyl-1H-pyrrole-3-carboxamide]?
**A.** CC50 at 7 days [1]: > 30 µM; EC50 [2]: < 0.05 µM

**Q.** Which CC50 at 7 days [1] does the source give for Cc1cc(NC(=O)c2c(C)c(C(=O)C(=O)NC3CCN(C4COC4)CC3)n(C)c2C)ccc1F [Example 652, N-(4-fluoro-3-methylphenyl)-1,2,4-trimethyl-5-(2-((1-(oxetan-3-yl)piperidin-4-yl)amino)-2-oxoacetyl)-1H-pyrrole-3-carboxamide] here?
**A.** > 30 µM

**Q.** And the EC50 [2]?
**A.** < 0.05 µM

**Q.** For Cc1cc(NC(=O)c2cc(C(=O)C(=O)NC(C)(C)C(N)=O)n3c2CCCC3)ccc1F [Example 406], which CC50 at 7 days [1] is on record?
**A.** > 30 µM

**Q.** And the EC50 [2]?
**A.** 0.5 to 1 µM

**Q.** With Cc1cc(NC(=O)c2c(C)c(C(=O)C(=O)N[C@H]3CCC[C@H](O)C3)n(C)c2C)ccc1F [Example 618, N-(4-fluoro-3-methylphenyl)-5-(2-(((1S,3S)-3-hydroxycyclohexyl)amino)-2-oxoacetyl)-1,2,4-trimethyl-1H-pyrrole-3-carboxamide] as the compound, how does the CC50 at 7 days [1] read?
**A.** > 30 µM

**Q.** What about the EC50 [2] of the same compound?
**A.** < 0.05 µM

**Q.** For Cc1c(C(=O)Nc2nccs2)c2n(c1C(=O)C(=O)NC1(CO)CCC1)CCCC2 [Example 751], which CC50 at 7 days [1] is on record?
**A.** > 30 µM

**Q.** And the EC50 [2]?
**A.** 0.05 to 0.499 µM

**Q.** For Cc1cc(NC(=O)c2c(C)c(C(=O)C(=O)NCC(C)(O)c3cccs3)n(C)c2C)ccc1F (stereo not shown) [Example 647, N-(4-fluoro-3-methylphenyl)-5-(2-((2-hydroxy-2-(thiophen-2-yl)propyl)amino)-2-oxoacetyl)-1,2,4-trimethyl-1H-pyrrole-3-carboxamide], which CC50 at 7 days [1] is on record?
**A.** > 30 µM

**Q.** What about the EC50 [2] of the same compound?
**A.** < 0.05 µM

**Q.** For Cc1cc(NC(=O)c2c(C)c(C(=O)C(=O)NOC(C)(C)C)n(C)c2C)ccc1F [Example 70, 5-(2-(tert-butoxyamino)-2-oxoacetyl)-N-(4-fluoro-3-methylphenyl)-1,2,4-trimethyl-1H-pyrrole-3-carboxamide], which CC50 at 7 days [1] is on record?
**A.** > 30 µM

**Q.** And the EC50 [2]?
**A.** < 0.05 µM

**Q.** For Cc1cc(NC(=O)c2c(C)c(C(=O)C(=O)N[C@@H]3CC[C@@H](O)C3)n(C)c2C)ccc1F [Example 127, N-(4-fluoro-3-methylphenyl)-5-(2-(((1R,3R)-3-hydroxycyclopentyl)amino)-2-oxoacetyl)-1,2,4-trimethyl-1H-pyrrole-3-carboxamide], which CC50 at 7 days [1] is on record?
**A.** > 30 µM

**Q.** And the EC50 [2]?
**A.** < 0.05 µM

**Q.** What does the source list for CC(=O)N1CC[C@@H](NC(=O)C(=O)c2c(C)c(C(=O)Nc3ccc(F)c(C)c3)c(C)n2C)C1 [Example 664, (R)-5-(2-((1-acetylpyrrolidin-3-yl)amino)-2-oxoacetyl)-N-(4-fluoro-3-methylphenyl)-1,2,4-trimethyl-1H-pyrrole-3-carboxamide]?
**A.** CC50 at 7 days [1]: > 30 µM; EC50 [2]: < 0.05 µM

**Q.** For Cc1noc(C2(NC(=O)C(=O)c3c(C)c(C(=O)Nc4ccc(F)c(C)c4)c(C)n3CCF)CC2)n1 [Example 203, N-(4-fluoro-3-methylphenyl)-1-(2-fluoroethyl)-2,4-dimethyl-5-(2-((1-(3-methyl-1,2,4-oxadiazol-5-yl)cyclopropyl)amino)-2-oxoacetyl)-1H-pyrrole-3-carboxamide], which CC50 at 7 days [1] is on record?
**A.** > 30 µM

**Q.** What about the EC50 [2] of the same compound?
**A.** < 0.05 µM

**Q.** Which CC50 at 7 days [1] does the source give for CC(=O)N[C@H]1C[C@@H](NC(=O)C(=O)c2c(C)c(C(=O)Nc3ccc(F)c(C)c3)c(C)n2C)C1 [Example 668, 5-(2-(((1s,3s)-3-acetamidocyclobutyl)amino)-2-oxoacetyl)-N-(4-fluoro-3-methylphenyl)-1,2,4-trimethyl-1H-pyrrole-3-carboxamide] here?
**A.** > 30 µM

**Q.** And the EC50 [2]?
**A.** < 0.05 µM

**Q.** Which CC50 at 7 days [1] does the source give for CC(C)(C)NC(=O)C(=O)c1cc(C(=O)Nc2ccc(F)c(Cl)c2)c2n1CCCC2 [Example 399, 3-(2-(tert-butylamino)-2-oxoacetyl)-N-(3-chloro-4-fluorophenyl)-5,6,7,8-tetrahydroindolizine-1-carboxamide] here?
**A.** > 30 µM

**Q.** What about the EC50 [2] of the same compound?
**A.** 0.05 to 0.499 µM
